Consider 31 compounds from patent publication US20240140958A1, “FUSED QUADRACYCLIC COMPOUNDS, COMPOSITIONS AND USES THEREOF” (Tabomedex Biosciences, Inc., priority 2021, published 2024).

The term IC50 denotes the midpoint of a concentration-inhibition curve.

Some results are limits rather than exact numbers.

Assay [1] has as its target T1, MAPKAPK2 Recombinant Human Protein (Homo sapiens, UniProt P49137).
T1 construct: purchased ThermoFisher pv3317
Description: MK2 kinase assay (Z'-LYTE kinase assay kit). Conditions: inhibition of MK2 biochemical activity; 90 min incubation at room temperature. As to the method: Materials and Reagents for Measuring Inhibition of MK2 Biochemical Activity: • 1) Assay plate: 384 Well Low Volume Black Round Bottom Polystyrene NBS Microplate (Corning, Cat.No. 4514) • 2) MK2 kinase assay kit: Z' LYTE KINASE ASSAY KIT (ThermoFisher, Cat.No. pv3177) • 3) MAPKAPK2 Recombinant Human Protein (ThermoFisher, Cat.No. pv3317) • 4) DMSO (Vetec, Cat.No. V900090) • 5) DTT (Sigma, Cat.No. D0632)
MK2 Kinase Assay Procedure: • 1) Dispense 5 μl Kinase/Peptide Mixture to each wells of 384-well plate • 2) Add 2.5 μl 4× Test Compound to each well • 3) Add 2.5 μl 4× ATP Solution to each well • 4) After 90 minutes incubation at room temperature, add 5 μl Development Solution to each well • 5) After 60 minutes incubation at room temperature, add 5 μl stop Solution to each well • 6) Measure the Coumarin (Ex. 400 nm, Em. 445 nm) and Fluorescein (Ex. 400 nm, Em. 520 nm) emission signals on an Envision plate reader (PerkinElmer)

A further assay concerns THP-1 cells. Description: THP-1 cell assay: LPS-stimulated pSer78-Hsp27 ELISA. Format: cell-based. The note with it: Homo sapiens, PMA-differentiated THP-1 cells, compound 60 min before 20 ng/mL LPS for 30 min. From the text:
Materials and Reagents for Measuring Activity in THP-1 Cells: • 1) THP-1 cells (Cell bank of Shanghai) • 2) PMA (Sigma, Cat.No. P1585) • 3) LPS (Sigma, Cat.No. L4516) • 4) 96-well tissue-culture treated plate (Grenier, Cat.No. 655180) • 5) FBS (Thermofisher, Cat.No. 10100147) • 6) Complete EDTA-free protease inhibitor Cocktail (Roche, Cat.No. 4693132001) • 7) PhosSTOP (Roche, Cat.No. 4906845001) • 8) Phosphor-Hsp27 (Ser78) Sandwich Elisa kit (CST, Cat.No. 7295)
Cell Assay Procedure: • 1) Day 0: THP-1 cells are seeded at 50K/well in complete media (1640+10% FBS+50 μM β-ME)+20 ng/mL PMA in 96-well plate • 2) Day 1: PMA containing media is removed after 24 h incubation (37° C./5% CO2), and replaced with complete growth media. Cells are incubated an additional 48 h to recover. • 3) Day 3: Cells are incubated with or without compounds at indicated concentrations for 60 min, prior to addition of 20 ng/mL LPS. Cells are stimulated for 30 min with LPS, washed 1× with ice cold PBS, lysed on ice in Lysis buffer provided in ELISA kit with Roche protease & phosphatase inhibitors. Extracts are clarified by refrigerated centrifugation & stored at −80° C. until pHsp27/total Hsp27 ELISAs • 4) Day 3 or Day 4: Cell Signaling Technology ELISA is run for pSer78-Hsp27 on lysates diluted to approximately 2.5 μg/well. • 5) The absorbance at 450 nm was read in a SpectraMax plus plate reader (Molecular Devices). Data was processed using GraphPad prism 8.0.
On the technique in general: ELISA stands for enzyme-linked immunosorbent assay.

T1 sequence (P49137 whole entry): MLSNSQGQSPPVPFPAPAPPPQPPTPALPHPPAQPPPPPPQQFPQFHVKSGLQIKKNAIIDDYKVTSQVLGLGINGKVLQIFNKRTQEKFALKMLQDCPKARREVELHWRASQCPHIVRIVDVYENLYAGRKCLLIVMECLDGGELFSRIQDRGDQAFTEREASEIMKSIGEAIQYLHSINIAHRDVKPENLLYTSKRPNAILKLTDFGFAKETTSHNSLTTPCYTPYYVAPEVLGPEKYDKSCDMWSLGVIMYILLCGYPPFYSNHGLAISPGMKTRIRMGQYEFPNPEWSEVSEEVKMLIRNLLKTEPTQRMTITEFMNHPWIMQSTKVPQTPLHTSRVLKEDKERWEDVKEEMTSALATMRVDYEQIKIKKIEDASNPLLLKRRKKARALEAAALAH

Consider `N#Cc1ccc(-c2cc3n(c2)Cc2cc(N4C[C@H]5CNC[C@H]5C4=O)ccc2-n2ccnc2-3)cc1` (relative stereo) [Example 30, cis-4-(7-(1-oxohexahydropyrrolo[3,4-c]pyrrol-2(1H)-yl)-9H-benzo[e]imidazo [2,1-c]pyrrolo[1,2-a][1,4]diazepin-12-yl)benzonitrile], for which the values for the IC50 (in assay [1]; in the assay on THP-1 cells) were 50 to 100 nM and 200 to 300 nM, respectively.

`CC(C)(N)[C@@H]1CN(c2ccc3c(c2)Cn2cc(-c4ccc(C#N)cc4)cc2-c2nccn2-3)C(=O)O1` (single isomer, unassigned) [Example 21]: the IC50 (in assay [1]; in the assay with THP-1 cells) was less than 50 nM throughout.

Regarding `CN(C)C[C@H]1CCN(c2ccc3c(c2)Cn2cc(-c4ccc(C#N)cc4)cc2-c2nccn2-3)C1=O` (single isomer, unassigned) [Example 35], the IC50 (in assay [1]; in the assay with THP-1 cells) was less than 50 nM in each case.

In the case of `CN(C)C[C@@H]1CCN(c2ccc3c(c2)Cn2cc(-c4ccc(C#N)cc4)cc2-c2nccn2-3)C1=O` (single isomer, unassigned) [Example 36], the IC50 (in assay [1]; with THP-1 cells) was less than 50 nM each time.

As for `CN(C)CC[C@H]1CCN(c2ccc3c(c2)Cn2cc(-c4ccc(C#N)cc4)cc2-c2nccn2-3)C1=O` (single isomer, unassigned) [Example 41], the IC50 (in assay [1]; with THP-1 cells) was less than 50 nM throughout.

`CN(C)CC[C@@H]1CCN(c2ccc3c(c2)Cn2cc(-c4ccc(C#N)cc4)cc2-c2nccn2-3)C1=O` (single isomer, unassigned) [Example 42]: the IC50 (in assay [1]; in the assay with THP-1 cells) was less than 50 nM in each case.

Consider `CN(C)CC1CC(=O)N(c2cc3c(cc2F)-n2ccnc2-c2cc(-c4ccc(C#N)cc4)cn2C3)C1` (stereo in doubt) [Example 91], for which the figures for the IC50 (in assay [1]; with THP-1 cells) were 50 to 100 nM and 300 to 400 nM, respectively.

As to `CN(C)C[C@@H]1CN(c2ccc3c(c2)Cn2cc(-c4ccc(C#N)cc4)cc2-c2nccn2-3)C(=O)O1` [Example 1, (R)-4-(7-(5-((Dimethylamino)methyl)-2-oxooxazolidin-3-yl)-9H-benzo [e]imidazo[2,1-c]pyrrolo[1,2-a][1,4]diazepin-12-yl)benzonitrile], the IC50 (in assay [1]; in the assay with THP-1 cells) was less than 50 nM throughout.

`CNC[C@@H]1CN(c2ccc3c(c2)Cn2cc(-c4ccc(C#N)cc4)cc2-c2nccn2-3)C(=O)O1` [Example 3]: the IC50 (in assay [1]; with THP-1 cells) was less than 50 nM in each case.

`CC(C)(C)NC[C@@H]1CN(c2ccc3c(c2)Cn2cc(-c4ccc(C#N)cc4)cc2-c2nccn2-3)C(=O)O1` [Example 4]: the half-maximal inhibitory concentration (IC50) (in assay [1]; in the assay on THP-1 cells) was less than 50 nM in each case.

In the case of `N#Cc1ccc(-c2cc3n(c2)Cc2cc(N4C[C@@H](CN5CCC5)OC4=O)ccc2-n2ccnc2-3)cc1` [Example 5], the IC50 (in assay [1]; in the assay with THP-1 cells) was less than 50 nM each time.

Regarding `CC1(C)CCN1C[C@@H]1CN(c2ccc3c(c2)Cn2cc(-c4ccc(C#N)cc4)cc2-c2nccn2-3)C(=O)O1` [Example 6, (R)-4-(7-(5-((2,2-Dimethylazetidin-1-yl)methyl)-2-oxooxazolidin-3-yl)-9H-benzo[e]imidazo[2,1-c]pyrrolo[1,2-a][1,4]diazepin-12-yl)benzonitrile], the IC50 (in assay [1]; in the assay on THP-1 cells) was less than 50 nM in each case.

Take `CN(C)C[C@H]1CC(=O)N(c2ccc3c(c2)Cn2cc(-c4ccc(C#N)cc4)cc2-c2nccn2-3)C1` [Example 7, (R)-4-(7-(4-((Dimethylamino)methyl)-2-oxopyrrolidin-1-yl)-9H-benzo[e]imidazo[2,1-c]pyrrolo[1,2-a][1,4]diazepin-12-yl)benzonitrile]: the IC50 (in assay [1]; in the assay with THP-1 cells) was less than 50 nM in each case.

As to `N#Cc1ccc(-c2cc3n(c2)Cc2cc(N4C[C@@H](CN)CC4=O)ccc2-n2ccnc2-3)cc1` [Example 8], the IC50 is less than 50 nM in assay [1] and 300 to 400 nM in the assay on THP-1 cells.

Turning to `CNC[C@H]1CC(=O)N(c2ccc3c(c2)Cn2cc(-c4ccc(C#N)cc4)cc2-c2nccn2-3)C1` [Example 9], the IC50 in assay [1] is less than 50 nM; in the assay on THP-1 cells it was 50 to 100 nM.

As to `CCNC[C@H]1CC(=O)N(c2ccc3c(c2)Cn2cc(-c4ccc(C#N)cc4)cc2-c2nccn2-3)C1` [Example 10], the values for the IC50 (in assay [1]; in the assay on THP-1 cells) were less than 50 nM and 100 to 200 nM, respectively.

Take `CN(CCO)C[C@H]1CC(=O)N(c2ccc3c(c2)Cn2cc(-c4ccc(C#N)cc4)cc2-c2nccn2-3)C1` [Example 11]: the figures for the IC50 (in assay [1]; in the assay with THP-1 cells) were 50 to 100 nM and 100 to 200 nM, respectively.

In turn, `[2H]C([2H])([2H])N(C[C@@H]1CCN1C(=O)c1ccc2c(c1)Cn1cc(-c3ccc(C#N)cc3)cc1-c1nccn1-2)C([2H])([2H])[2H]` [Example 120, (S)-4-(7-(2-((Bis(methyl-d3)amino)methyl)azetidine-1-carbonyl)-9H-benzo[e]imidazo[2,1-c]pyrrolo[1,2-a][1,4]diazepin-12-yl)benzonitrile] came in with an IC50 in the assay with THP-1 cells of less than 50 nM.

Regarding `CN(C)[C@@H]1CC[C@@H](NC(=O)c2ccc3c(c2)Cn2cc(-c4ccc(C#N)cc4)cc2-c2nccn2-3)C1` [Example 123], the IC50 in assay [1] was 300 to 400 nM.

As for `CN(C)[C@@H]1CCCN(C(=O)c2ccc3c(c2)Cn2cc(-c4ccc(C#N)cc4)cc2-c2nccn2-3)C1` [Example 124], the IC50 in assay [1] was 50 to 100 nM.

Take `CN(C)[C@H]1CCCN(C(=O)c2ccc3c(c2)Cn2cc(-c4ccc(C#N)cc4)cc2-c2nccn2-3)C1` [Example 125]: the half-maximal inhibitory concentration (IC50) in assay [1] is 50 to 100 nM.

Take `CN(C)[C@H]1C[C@@H](NC(=O)c2ccc3c(c2)Cn2cc(-c4ccc(C#N)cc4)cc2-c2nccn2-3)C1` [Example 127]: in assay [1], the IC50 is 100 to 200 nM.

Consider `CN1CC(C)(NC(=O)c2ccc3c(c2)Cn2cc(-c4ccc(C#N)cc4)cc2-c2nccn2-3)C1` [Example 129], for which the IC50 in assay [1] lay within 100 to 200 nM.

For the compound `CN(C)CC(C)(C)NC(=O)c1ccc2c(c1)Cn1cc(-c3ccc(C#N)cc3)cc1-c1nccn1-2` [Example 130], the half-maximal inhibitory concentration (IC50) in assay [1] was 100 to 200 nM.

Turning to `CN1CCC2(CC1)CN(C(=O)c1ccc3c(c1)Cn1cc(-c4ccc(C#N)cc4)cc1-c1nccn1-3)C2` [Example 131], the IC50 in assay [1] was 50 to 100 nM.

With `CN1CC(N(C)C(=O)c2ccc3c(c2)Cn2cc(-c4ccc(C#N)cc4)cc2-c2nccn2-3)C1` [Example 132, 12-(4-Cyanophenyl)-N-methyl-N-(1-methylazetidin-3-yl)-9H-benzo[e]imidazo [2,1c]pyrrolo[1,2-a][1,4]diazepine-7-carboxamide], the IC50 in assay [1] was 50 to 100 nM.

As for `CN[C@H]1CC[C@H](N(C)C(=O)c2ccc3c(c2)Cn2cc(-c4ccc(C#N)cc4)cc2-c2nccn2-3)C1` [Example 133], in assay [1], the IC50 is 200 to 300 nM.

For `CN1CC[C@@H](N(C)C(=O)c2ccc3c(c2)Cn2cc(-c4ccc(C#N)cc4)cc2-c2nccn2-3)C1` [Example 134], in assay [1], the IC50 fell in the range of 200 to 300 nM.

Turning to `CN(CC1CNC1)C(=O)c1ccc2c(c1)Cn1cc(-c3ccc(C#N)cc3)cc1-c1nccn1-2` [Example 135], the IC50 in assay [1] is 100 to 200 nM.

Consider `CN(CC(CN)CO)C(=O)c1ccc2c(c1)Cn1cc(-c3ccc(C#N)cc3)cc1-c1nccn1-2` (stereo not drawn) [Example 136], for which the IC50 in assay [1] is 50 to 100 nM.

Regarding `CNC[C@@H]1CCN1C(=O)c1ccc2c(c1)Cn1cc(-c3ccc(C#N)cc3)cc1-c1nccn1-2` [Example 137, (S)-4-(7-(2-((Methylamino)methyl)azetidine-1-carbonyl)-9H-benzo[e]imidazo [2,1-c]pyrrolo[1,2-a][1,4]diazepin-12-yl)benzonitrile], in the assay on THP-1 cells, the IC50 lay in the range of 200 to 300 nM.
